In patent US12521377B2, “Uses of (+)-B-dihydrotetrabenazine in methods of treating movement disorder” (ADEPTIO PHARMACEUTICALS LIMITED, priority 2017, dated 2026):
Entries after “also recorded” stand apart in the source; their conditions may differ. Values belong to the molecule of their own block, whether it stands above or below them.

Tests used:
[1] = biological target: Chromaffin Granule Monoamine Transporter (Bos taurus, UniProt Q27963); settings: cited from earlier work
[2] = Pharmacokinetic study, single-dose oral administration of tetrabenazine 25 mg to healthy adult male volunteers: plasma levels of tetrabenazine and DHTBZ isomers; assay type: in vivo, human; settings: for status as metabolite of tetrabenazine in humans: single and multiple dose tetrabenazine 25 mg, Tables 1 and 2; for Kel: N=08, unit not given
Procedure: (§1) A pharmacokinetic study was carried out in healthy adult male volunteers under fasting conditions at a dose of single and multiple oral administration of 25 mg tablets once a day to ascertain the plasma levels of +/−α and +/−β dihydro-tetrabenazine.
Table 1 summarises the pharmacokinetic data obtained following single-dose oral administration of tetrabenazine at a dose level of 25 mg (fasting, N=08).

male CD rats = experiment: Amphetamine induced locomotor activity and stereotypies in the open field arena; assay type: in vivo, rat; settings: amphetamine at t=30 min; for normalised total distance travelled, compared to vehicle-amphetamine group / normalised total stereotypic behaviour, compared to vehicle-amphetamine group: listed as (+)-β-DHTBZ
Procedure: Resulting locomotor activity was evaluated in 3 min bins and as a total over the testing period. […] Resulting stereotypic activity was evaluated in 3 min bins and as a total over the testing period.

[3] = rat brain, stereochemistry not disclosed; cited from earlier work
[4] = Pharmacokinetic study, multiple-dose oral administration of tetrabenazine 25 mg once a day to healthy adult male volunteers: plasma levels; assay type: in vivo; settings: multiple-dose oral tetrabenazine 25 mg once a day, fasting, N=07, human plasma
Procedure: as §1
Table 2 summarises the pharmacokinetic data obtained following multiple-dose oral administration of tetrabenazine at a dose level of 25 mg (fasting, N=07).

[5] = single-dose oral tetrabenazine 25 mg, fasting
[6] = single-dose oral tetrabenazine 25 mg, fasting, N=08, human plasma

Chromaffin Granule Monoamine Transporter, sequence (Q27963 whole entry): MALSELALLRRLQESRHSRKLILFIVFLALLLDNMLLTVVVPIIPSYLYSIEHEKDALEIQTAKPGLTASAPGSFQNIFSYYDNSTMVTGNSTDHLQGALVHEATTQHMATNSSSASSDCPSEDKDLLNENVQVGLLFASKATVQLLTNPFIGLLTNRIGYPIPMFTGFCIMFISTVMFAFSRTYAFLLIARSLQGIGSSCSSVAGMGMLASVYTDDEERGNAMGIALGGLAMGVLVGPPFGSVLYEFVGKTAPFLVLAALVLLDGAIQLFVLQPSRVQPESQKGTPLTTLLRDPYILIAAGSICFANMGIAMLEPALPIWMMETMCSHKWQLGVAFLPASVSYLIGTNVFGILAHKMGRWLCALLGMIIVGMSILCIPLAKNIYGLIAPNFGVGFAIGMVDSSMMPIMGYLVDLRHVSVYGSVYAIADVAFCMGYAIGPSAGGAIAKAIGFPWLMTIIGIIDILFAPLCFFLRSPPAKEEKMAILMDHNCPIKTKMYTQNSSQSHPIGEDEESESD

Molecule: COc1cc2c(cc1OC)[C@H]1C[C@@H](O)[C@H](CC(C)C)CN1CC2 [(+)-α-dihydrotetrabenazine]
- more active than the (+)-β-isomer ([1]; earlier findings, as worded): 3- to 4 times
- status as metabolite of tetrabenazine in humans [2]: minor metabolites
- Kel [2, 5]: 0.17

Molecule: COc1cc2c(cc1OC)C1CC(O)C(CC(C)C)CN1CC2 (stereo not shown) [dihydrotetrabenazine, 2-hydroxy-3-(2-methylpropyl)-1,3,4,6,7,11b-hexahydro-9,10-dimethoxy-benzo(a)quinolizine]
- crossing of the blood-brain barrier [3]: able to cross the blood-brain barrier

Molecule: COc1cc2c(cc1OC)C1CC(=O)C(CC(C)C)CN1CC2 (racemic) [Tetrabenazine, 1,3,4,6,7,11b-hexahydro-9,10-dimethoxy-3-(2-methylpropyl)-2H-benzo(a)quinolizin-2-one]
- Kel [2, 5]: 0.19

Molecule: α-dihydrotetrabenazine
- higher affinity than the β-isomer ([1]; racemic α- versus racemic β-dihydrotetrabenazine, in vitro): 3- to 4 fold

Now from value to molecule, other results behind:

- Kel [2, 5]: 0.13
Molecule: COc1cc2c(cc1OC)[C@H]1C[C@H](O)[C@H](CC(C)C)CN1CC2 [(+)-β-dihydrotetrabenazine, (S,R,R)-3-isobutyl-9,10-dimethyloxy-1,3,4,5,7,11b-hexahydro-2H-pyrido[2,1-a]isoquinolin-2-ol]
- normalised total stereotypic behaviour, compared to vehicle-vehicle group (male CD rats; 2.5 mg/kg at t=0 min): significantly different
- normalised total distance travelled, compared to vehicle-amphetamine group (male CD rats; 2.5 mg/kg at t=0 min): lower locomotor activity
- normalised total stereotypic behaviour, compared to vehicle-amphetamine group (male CD rats; 2.5 mg/kg at t=0 min): significantly different; also recorded: reduced stereotypic behaviour
- normalised total stereotypic behaviour, compared to vehicle-vehicle group (male CD rats; 5 mg/kg at t=0 min): significantly different
- normalised total distance travelled, compared to vehicle-amphetamine group (male CD rats; 5 mg/kg at t=0 min): lower locomotor activity
- normalised total stereotypic behaviour, compared to vehicle-amphetamine group (male CD rats; 5 mg/kg at t=0 min): significantly different; also recorded: reduced stereotypic behaviour
- status as metabolite of tetrabenazine in humans [2]: major metabolites; also recorded: main metabolites

- Kel [2, 5]: 0.10
Molecule: COc1cc2c(cc1OC)[C@@H]1C[C@H](O)[C@@H](CC(C)C)CN1CC2 [(−)-α-dihydrotetrabenazine]
- status as metabolite of tetrabenazine in humans [2]: major metabolites; also recorded: main metabolites

- AUC(0-t) [4]: 25.17 ng·h/mL
- Cmaxss [4]: 7.78 ng/mL
- Cminss [4]: 0.16 ng/mL
- Ctss [4]: 0.57 ng/mL
- Tmaxss Mean [4]: 97.11 h
- status as metabolite of tetrabenazine in humans [2]: minor metabolites
- Cmax ([2]; single dose study, tetrabenazine administered to adult male humans): 5.28 ng/mL
- area under the curve (AUC) ([2]; single dose study, tetrabenazine administered to adult male humans (unit not given)): 16.28
- AUC(0-inf.) [2, 6]: 18.77 ng·h/mL
- AUC(0-t) [2, 6]: 16.28 ng·h/mL
- Cmax [2, 6]: 5.28 ng/mL
- Extrapolated AUC [2, 6]: 17.66%
- Half-life (Mean) [2, 6]: 12.98 h
- Tmax Mean [2, 6]: 1.03 h
- Kel [2, 5]: 0.45
Molecule: COc1cc2c(cc1OC)[C@@H]1C[C@@H](O)[C@@H](CC(C)C)CN1CC2 [(−)-β-dihydrotetrabenazine]
